In experiment [1] the target is T1, FKBP51 variant G64E (Homo sapiens, UniProt Q13451, G64E).
T1 construct: made in house; host or cells: E. coli BL21 (DE3)
T1 sequence (Q13451 1-140 G64E): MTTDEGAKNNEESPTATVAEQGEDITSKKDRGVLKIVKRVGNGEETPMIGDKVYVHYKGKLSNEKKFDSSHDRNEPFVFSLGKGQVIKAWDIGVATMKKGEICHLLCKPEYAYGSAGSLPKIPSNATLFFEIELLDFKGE
The experiment can be described thus: Fluorescence polarization tracer binding, FKBP51 G64E. Conditions: for Fold change in Kd improvement: FKBP51 G64E compared to WT; for Kd: FKBP51 G64E, 0.5 nM SAFit-FL, 5 nM Mcyc-TA or 1 nM FK [431]-TA, 30 min room temperature. The text has this: (§1) All ligands and tracers used for fluorescence polarization assays had purities of more than 95%. The following ligands and tracers were used for fluorescence polarization and FACS screening experiments: •SAFit-FL tracer (1): Fluorescein conjugated analog of the iFit ligand class. •Mcyc-TA tracer (2): TAMRA conjugated macrocyclic ligand (5). •FK [431]-TA tracer (3): TAMRA conjugated FK [431] ligand (6). •SAFit1 ligand (4): analog of the iFit ligand class. •macrocyclic ligand (5):macrocyclic analog of the SAFit class ligands. •FK [431] ligand (6):bicyclic analog of the immunosuppressive drug FK506
(§2) The binding of the generated FKBP51 variants to different conformation-sensitive FKBP ligands was investigated by fluorescence polarization assays. Therefore, a serial dilution of the respective FKBP51 variant in assay buffer (20 mM HEPES pH 8.0, 150 mM NaCl, 0.015% Triton X-100) was placed in a 384-well assay plate and a defined amount of the respective fluorescent tracer (0.5 nM of the SAFit based tracer SAFit-FL (1), 5 nM of the macrocyclic tracer Mcyc-TA 2) or 1 nM of the FK [431]-TA 3) in assay buffer was added to the protein buffer mixture. After incubation for 30 min at room temperature, the fluorescence polarization was measured with a plate reader. The obtained results for each 3 independent experiments were normalized with respect to the maximal binding signal and fitted to a one-site binding model as described by [Wang et al., 1992] yielding the respective binding constants. tracer bound=100/Lt×0.5×(Rt+Lt+KD−(Rt+Lt+KD)^2−4×LtRt) With L t , total concentration of the tracer, R t , total concentration of the receptor and K D binding constant of the complex RL.
(In general: In fluorescence polarisation assays a small probe gives low polarisation when free and higher when bound to something large.)

Experiment [2] deals with T2, FKBP51 variant G64D (Homo sapiens, UniProt Q13451, G64D).
T2 construct: made in house; host or cells: E. coli BL21 (DE3)
T2 sequence (Q13451 1-140 G64D): T1 sequence (Q13451 1-140 G64E) with E64D
The experiment can be described thus: Fluorescence polarization tracer binding, FKBP51 G64D. The settings on record: for Fold change in Kd improvement: FKBP51 G64D compared to WT; for Kd: FKBP51 G64D, 0.5 nM SAFit-FL, 5 nM Mcyc-TA or 1 nM FK [431]-TA, 30 min room temperature.
Excerpt: as §1, §2

The target in experiment [3] is T3, FKBP51 variant F67S (Homo sapiens, UniProt Q13451, F67S).
T3 construct: made in house; host or cells: E. coli BL21 (DE3)
T3 sequence (Q13451 1-140 F67S): T1 sequence (Q13451 1-140 G64E) with E64G, F67S
The experiment in a line: Fluorescence polarization tracer binding, FKBP51 F67S. Conditions: for Fold change in Kd improvement: FKBP51 F67S compared to WT; for Kd: FKBP51 F67S, 0.5 nM SAFit-FL, 5 nM Mcyc-TA or 1 nM FK [431]-TA, 30 min room temperature.
Excerpt: as §1, §2

Experiment [4] addresses T4, FKBP51 variant F67E (Homo sapiens, UniProt Q13451, F67E).
T4 construct: made in house; host or cells: E. coli BL21 (DE3)
T4 sequence (Q13451 1-140 F67E): T1 sequence (Q13451 1-140 G64E) with E64G, F67E
The experiment in a line: Fluorescence polarization tracer binding, FKBP51 F67E. Conditions: for Kd: FKBP51 F67E, 0.5 nM SAFit-FL, 5 nM Mcyc-TA or 1 nM FK [431]-TA, 30 min room temperature.
Excerpt: as §1, §2

Experiment [5] concerns the target T5, FKBP51 variant F67W (Homo sapiens, UniProt Q13451, F67W).
T5 construct: made in house; host or cells: E. coli BL21 (DE3)
T5 sequence (Q13451 1-140 F67W): T1 sequence (Q13451 1-140 G64E) with E64G, F67W
The experiment can be described thus: Fluorescence polarization tracer binding, FKBP51 F67W. Conditions: for Fold change in Kd improvement: FKBP51 F67W compared to WT.
Excerpt: as §1, §2

The target of experiment [6] is T6, FKBP51 variant G64A (Homo sapiens, UniProt Q13451, G64A).
T6 construct: made in house; host or cells: E. coli BL21 (DE3)
T6 sequence (Q13451 1-140 G64A): T1 sequence (Q13451 1-140 G64E) with E64A
The experiment in a line: Fluorescence polarization tracer binding, FKBP51 G64A. Conditions: for Fold change in Kd improvement: FKBP51 G64A compared to WT; for Kd: FKBP51 G64A, 0.5 nM SAFit-FL, 5 nM Mcyc-TA or 1 nM FK [431]-TA, 30 min room temperature.
Excerpt: as §1, §2

In experiment [7] the target is T7, FKBP51 variant N63G (Homo sapiens, UniProt Q13451, N63G).
T7 construct: made in house; host or cells: E. coli BL21 (DE3)
T7 sequence (Q13451 1-140 N63G): T1 sequence (Q13451 1-140 G64E) with N63G, E64G
The experiment can be described thus: Fluorescence polarization tracer binding, FKBP51 N63G. Conditions: for Fold change in Kd improvement: FKBP51 N63G compared to WT; for Kd: FKBP51 N63G, 0.5 nM SAFit-FL, 5 nM Mcyc-TA or 1 nM FK [431]-TA, 30 min room temperature.
Excerpt: as §1, §2

The target of experiment [8] is T8, FKBP51 variant N63A (Homo sapiens, UniProt Q13451, N63A).
T8 construct: made in house; host or cells: E. coli BL21 (DE3)
T8 sequence (Q13451 1-140 N63A): T1 sequence (Q13451 1-140 G64E) with N63A, E64G
The experiment in a line: Fluorescence polarization tracer binding, FKBP51 N63A. Conditions: for Fold change in Kd improvement: FKBP51 N63A compared to WT; for Kd: FKBP51 N63A, 0.5 nM SAFit-FL, 5 nM Mcyc-TA or 1 nM FK [431]-TA, 30 min room temperature.
Excerpt: as §1, §2

Experiment [9] concerns the target T9, FKBP51 WT (FK1 domain) (Homo sapiens, UniProt Q13451).
T9 construct: made in house; host or cells: E. coli BL21 (DE3)
T9 sequence (Q13451 1-140): T1 sequence (Q13451 1-140 G64E) with E64G
The experiment can be described thus: Fluorescence polarization tracer binding, FKBP51 WT. The settings on record: for Fold change in Kd improvement: FKBP51 WT (reference); for Kd: FKBP51 WT, 0.5 nM SAFit-FL, 5 nM Mcyc-TA or 1 nM FK [431]-TA, 30 min room temperature, 3 independent experiments.
Excerpt: as §1, §2

Each structure is given as a SMILES string. Changes are numbered by the printed parent chain.

Broadly, the Kd is a measure of binding affinity in units of concentration. A high value points to weaker binding. As to `CN(C)c1ccc2c(-c3cc(C(=O)NCCn4cc([C@H]5CN(Cc6ccccn6)C(=O)[C@@H]6CCC[C@H]5N6S(=O)(=O)c5cc(Cl)cc(Cl)c5)nn4)ccc3C(=O)O)c3ccc(=[N+](C)C)cc-3oc2c1` [FK [431]-TA], the “Fold change in Kd improvement” value is recorded as 0.268 fold in experiment [1]; 0.300 fold in experiment [2]; 0.004 fold in [3]; 0.004 fold in experiment [4] (FKBP51 F67E compared to WT); 0.004 fold in [5]; 0.084 fold in [6]. Moreover, the figures for the “Fold change in Kd improvement” value in experiment [7], in experiment [8] and in experiment [9] were 0.850 fold, 0.850 fold and 1 fold, respectively. The Kd stood at 19 ± 1 nM in [1]; 17 ± 1 nM in experiment [2]; 1240 ± 60 nM in [3]; 1330 ± 66 nM in [4]; 61 ± 2 nM in experiment [6]; 6 ± 0.2 nM in experiment [7]. Besides, the Kd in experiment [8] is 6 ± 0.2 nM; in experiment [9], 5.1 ± 0.1 nM.

As for `COc1ccc(CC[C@H]2OC(=O)[C@@H]3CCCCN3C(=O)[C@@H](C3CCCCC3)NC(=O)C(C)(C)NC(=O)COc3cc(OCCNC(=O)c4ccc(C(=O)O)c(-c5c6ccc(=[N+](C)C)cc-6oc6cc(N(C)C)ccc56)c4)cc2c3)cc1OC` [Mcyc-TA], the “Fold change in Kd improvement” value is listed as 7.27 fold in experiment [1]; 2.76 fold in experiment [2]; 1.14 fold in experiment [3]; 1.50 fold in experiment [5]; 5.71 fold in experiment [6]; 3.16 fold in [7]. Moreover, the “Fold change in Kd improvement” value came out at 5.58 fold in experiment [8] and 1.00 fold in experiment [9]. The Kd is 3.3 ± 0.3 nM in experiment [1]; 8.7 ± 1 nM in experiment [2]; 21 ± 2 nM in experiment [3]; 5 ± 0.5 nM in [4]; 16 ± 1 nM in experiment [5] (FKBP51 F67W, 0.5 nM SAFit-FL, 5 nM Mcyc-TA or 1 nM FK [431]-TA, 30 min room temperature); 4.2 ± 0.5 nM in experiment [6]. The Kd in [7] was determined as 7.6 ± 0.9 nM; in experiment [8], 4.3 ± 0.5 nM; in experiment [9], 24 ± 2 nM.

For the origin of these results see paper PMC9676650, “Binding pocket stabilization by high-throughput screening of yeast display libraries” (Frontiers in Molecular Biosciences, 2022).
